Tests used:
hTRPV3 single channel = target: T1, hTRPV3 single channel (Homo sapiens, UniProt Q8NET8); test: Inside-out single-channel recordings of TRPV3 in HEK293 cells; format: cell-based; conditions: 50 μM flopropione in presence of 30 μM 2-APB, −60 mV
T1 construct: expressed in transfected cells; host or cells: HEK293
T1 sequence (Q8NET8 1-790): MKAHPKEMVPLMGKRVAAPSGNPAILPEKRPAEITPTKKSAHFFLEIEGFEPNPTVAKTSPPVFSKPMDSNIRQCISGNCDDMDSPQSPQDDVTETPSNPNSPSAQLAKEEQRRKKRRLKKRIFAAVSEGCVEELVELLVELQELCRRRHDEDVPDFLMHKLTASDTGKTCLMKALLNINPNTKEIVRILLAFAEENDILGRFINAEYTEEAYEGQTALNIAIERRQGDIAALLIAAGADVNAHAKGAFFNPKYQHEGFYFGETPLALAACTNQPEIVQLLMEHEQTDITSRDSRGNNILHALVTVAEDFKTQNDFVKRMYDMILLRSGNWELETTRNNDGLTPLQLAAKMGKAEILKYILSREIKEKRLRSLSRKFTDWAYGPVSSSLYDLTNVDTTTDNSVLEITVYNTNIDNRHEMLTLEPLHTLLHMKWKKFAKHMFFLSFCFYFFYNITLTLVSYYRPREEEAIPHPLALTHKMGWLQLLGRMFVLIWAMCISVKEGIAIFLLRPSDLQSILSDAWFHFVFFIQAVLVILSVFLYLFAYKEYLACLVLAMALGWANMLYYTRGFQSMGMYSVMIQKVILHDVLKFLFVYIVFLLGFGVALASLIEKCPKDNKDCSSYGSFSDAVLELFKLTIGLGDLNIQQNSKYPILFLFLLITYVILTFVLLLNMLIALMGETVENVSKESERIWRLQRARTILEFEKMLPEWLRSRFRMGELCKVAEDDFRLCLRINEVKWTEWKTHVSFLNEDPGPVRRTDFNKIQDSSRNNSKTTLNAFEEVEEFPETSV
Excerpt: For single-channel recordings, borosilicate glass pipettes were pulled from borosilicate glass capillaries and fire-polished to the resistance between 6 and 10 MΩ using a DMZ universal electrode puller (Zeitz-Instruments, GmbH). For inside-out single-channel recordings, both pipette and external solutions contained (in mM): 130 NaCl, three HEPES, and 0.2 EDTA (pH = 7.4). Membrane potential was clamped at −60 mV and currents were digitized at 10 kHz and filtered at 2 kHz.

[1] = system: DNFB-induced dorsal skin inflammation; test: Mouse model of dorsal skin inflammation (atopic dermatitis) induced by DNFB; format: in vivo, C57BL/6J mice
Procedure: Mice were placed in a gas anesthesia device (SurgiVet) for anesthesia before the hair on the back was removed with a razor, followed by the application of an appropriate amount of hair removal cream to gently shave off the remaining hair. For generation of atopic dermatitis and ear swelling, chemical skin sensitizer DNFB (1-Fluoro-2,4-dinitrobenzene), commonly known as Sanger’s Reagent, was dissolved in a solvent (acetone/olive oil = 4/1, v/v) and 0.5% DNFB in 100 μl was applied once topically to the back and right ear for skin sensitization 1 day after acclimatization for hair removal ([43]) without any treatment for next 3 days. On the fifth and sixth days, 0.2% DNFB in 50 μl was applied topically once a day for 2 days for challenge before different concentrations of flopropione in 100 μl were topically applied once a day for four consecutive days. First application of topical flopropione started half an hour after the last application of 0.2% DNFB challenge. For the effect of flopropione on skin inflammation, topical flopropione (0.1 mM, 1 mM or 10 mM) in 100 μl was applied into ear and shaved area of dorsal skin by swabbing once a day for four consecutive days.
The score contents and criteria include (1): skin erythematous/bleeding (2), skin scratches/erosion (3), skin edema (4), skin scaling or lichenoid change ([44]). Each symptom was scored from 0 to 3 (none, 0; mild, one; moderate, two; severe, (3). The final score was defined as the sum of individual scores on a scale from 0 to 12. Mouse ear thickness was measured once a day for continuous 5 days with the first measurement of ear thickness 30 min after the last application of 0.2% DNFB using vernier caliper.
Mice were anesthetized with 1.0% isoflurane before sacrifice 24 h after the last treatment ([31], [32], [43]). Mouse dorsal skin was removed with scissors and forceps before fixed with 4% paraformaldehyde. Paraffin-embedded tissues were sectioned and stained with hematoxylin and eosin. Stained sections were observed using bright-field microscopy (ECLIPSE Ti-S, Nikon) and CCD-camera (DS-Ri2, Nikon).

CCC(=O)c1c(O)cc(O)cc1O [flopropione]
unitary single channel conductance (hTRPV3 single channel): 167.1 ± 9.0 pS
single-channel open probability (hTRPV3 single channel; n = 4): 0.17 ± 0.06
dorsal skin inflammation (phenotype) ([1]; topical 0.1–10 mM, once a day for 4 days, vs DNFB alone): alleviated the skin inflammation in concentration-dependent manner
dermatitis scores ([1]; topical 0.1–10 mM, vs DNFB alone group, n = 5): significantly reduced the dermatitis scores
skin hyperkeratosis and lesion (histology, dorsal skin thickness) ([1]; topical 0.1 ∼ 10 mM, H&E sections, vs DNFB alone): reduced mouse skin hyperkeratosis and lesion
